These results are taken from patent US7223759B2, “Antibacterial 3,5-diaminopiperidine-substituted aromatic and heteroaromatic compounds” (Anadys Pharmaceuticals, Inc., priority 2003, dated 2007).

The subject of one experiment is Escherichia coli (ATCC25922) or Staphylococcus aureus (ATCC25923). Put plainly: Antibacterial MIC, microdilution method in Mueller-Hinton medium. It counts as cell-based. The settings on record: Escherichia coli, 18 h, MIC in E. coli or S. aureus; two-fold serial dilutions 64 to 0.5 μg/ml in duplicate; 18 hours of incubation at 35° C.; read-out: Potency (MIC). The method in brief: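 Read after 18 h incubation at 35° C, MIC is the lowest compound level that blocked growth. Compounds were tested in duplicate over 64–0.5 μg/ml two-fold dilutions using Mueller-Hinton microdilution per NCCLS standard.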
In general terms: In broth dilution the organism is exposed to a series of concentrations in liquid medium.
What is called MIC is the lowest concentration found to suppress growth. On to `Cc1cc(NC(=O)c2cccc([N+](=O)[O-])c2O)ccc1Nc1nc(N2CCCCC2)nc(N2CCCCC2)n1.Cl` [N-[4-(2-hydroxy-3-nitro-benzoylamino)-2-methyl-pphenyl]-4,6-Bis-((3R,5S)-3,5-diamino-piperidin-1-yl)-[1,3,5]triazine-2-amine], for which the MIC was above 64 µg/mL.

Staying with this experiment, now noted: Escherichia coli, 18 h, read-out: Potency (MIC).
As for `CCN(CC)CCNC(=O)c1ccc(Nc2nc(N3C[C@H](N)C[C@H](N)C3)nc(N3C[C@H](N)C[C@H](N)C3)n2)cc1` [N-[4-(2-diethylamino-ethylcarbamoyl)-phenyl]-4,6-Bis-((3R,5S)-3,5-diamino-piperidin-1-yl)-[1,3,5]triazine-2-amine], the MIC was below 64 µg/mL.

Regarding `N[C@@H]1C[C@H](N)CN(c2nc(Nc3ccc(C(=O)Nc4ccccc4F)c(O)c3)nc(N3C[C@H](N)C[C@H](N)C3)n2)C1` [N-[4-(2-fluoro-phenylcarbamoyl)-3-hydroxy-phenyl]-4,6-Bis-((3R,5S)-3,5-diamino-piperidin-1-yl)-[1,3,5]triazine-2-amine], the MIC was below 64 µg/mL.

`CC(C)c1cc(C(=O)Nc2ccc(Nc3nc(N4C[C@H](N)C[C@H](N)C4)nc(N4C[C@H](N)C[C@H](N)C4)n3)cc2)c(O)c(C(C)C)c1` [N-[4-(2-hydroxy-3,5-diisopropyl-benzoylamino)-phenyl]-4,6-Bis-((3R,5S)-3,5-diamino-piperidin-1-yl)-[1,3,5]triazine-2-amine]: the MIC was below 16 µg/mL.

Turning to `COc1cccc(C(=O)Nc2ccc(Nc3nc(N4C[C@H](N)C[C@H](N)C4)nc(N4C[C@H](N)C[C@H](N)C4)n3)cc2)c1O` [N-[4-(2-hydroxy-3-methoxy-benzoylamino)-phenyl]-4,6-Bis-((3R,5S)-3,5-diamino-piperidin-1-yl)-[1,3,5]triazine-2-amine], the MIC is below 64 µg/mL.

In the case of `Cc1cc(Nc2nc(N3C[C@H](N)C[C@H](N)C3)nc(N3C[C@H](N)C[C@H](N)C3)n2)ccc1NC(=O)c1cccc(C)c1O` [N-[4-(2-hydroxy-3-methyl-benzoylamino)-3-methyl-phenyl]-4,6-Bis-((3R,5S)-3,5-diamino-piperidin-1-yl)-[1,3,5]triazine-2-amine], the MIC is below 64 µg/mL.

Turning to `Cc1cc(Nc2nc(N3C[C@H](N)C[C@H](N)C3)nc(N3C[C@H](N)C[C@H](N)C3)n2)ccc1NC(=O)c1cccc([N+](=O)[O-])c1O` [N-[4-(2-hydroxy-3-nitro-benzoylamino)-3-methyl-phenyl]-4,6-Bis-((3R,5S)-3,5-diamino-piperidin-1-yl)-[1,3,5]triazine-2-amine], the MIC is below 64 µg/mL.

With `N[C@@H]1C[C@H](N)CN(c2nc(Nc3ccc(NC(=O)c4cccc([N+](=O)[O-])c4O)cc3)nc(N3C[C@H](N)C[C@H](N)C3)n2)C1` [N-[4-(2-hydroxy-3-nitro-benzoylamino)-phenyl]-4,6-Bis-((3R,5S)-3,5-diamino-piperidin-1-yl)-[1,3,5]triazine-2-amine], the MIC is above 64 µg/mL.

Regarding `COc1ccc(C(=O)Nc2ccc(Nc3nc(N4C[C@H](N)C[C@H](N)C4)nc(N4C[C@H](N)C[C@H](N)C4)n3)cc2)c(O)c1` [N-[4-(2-hydroxy-4-methoxy-benzoylamino)-phenyl]-4,6-Bis-((3R,5S)-3,5-diamino-piperidin-1-yl)-[1,3,5]triazine-2-amine], the MIC is above 64 µg/mL.

As to `Cc1ccc(C(=O)Nc2ccc(Nc3nc(N4C[C@H](N)C[C@H](N)C4)nc(N4C[C@H](N)C[C@H](N)C4)n3)c(C)c2)c(O)c1` [N-[4-(2-hydroxy-4-methyl-benzoylamino)-2-methyl-phenyl]-4,6-Bis-((3R,5S)-3,5-diamino-piperidin-1-yl)-[1,3,5]triazine-2-amine], the MIC is below 64 µg/mL.

Consider `Cc1ccc(C(=O)Nc2ccc(Nc3nc(N4C[C@H](N)C[C@H](N)C4)nc(N4C[C@H](N)C[C@H](N)C4)n3)cc2C)c(O)c1` [N-[4-(2-hydroxy-4-methyl-benzoylamino)-3-methyl-phenyl]-4,6-Bis-((3R,5S)-3,5-diamino-piperidin-1-yl)-[1,3,5]triazine-2-amine], for which the MIC is below 64 µg/mL.

`Cc1ccc(C(=O)Nc2ccc(Nc3nc(N4C[C@H](N)C[C@H](N)C4)nc(N4C[C@H](N)C[C@H](N)C4)n3)cc2)c(O)c1` [N-[4-(2-hydroxy-4-methyl-benzoylamino)-phenyl]-4,6-Bis-((3R,5S)-3,5-diamino-piperidin-1-yl)-[1,3,5]triazine-2-amine]: the MIC was below 16 µg/mL.

`COc1ccc(O)c(C(=O)Nc2ccc(Nc3nc(N4C[C@H](N)C[C@H](N)C4)nc(N4C[C@H](N)C[C@H](N)C4)n3)cc2)c1` [N-[4-(2-hydroxy-5-methoxy-benzoylamino)-phenyl]-4,6-Bis-((3R,5S)-3,5-diamino-piperidin-1-yl)-[1,3,5]triazine-2-amine]: the MIC is below 64 µg/mL.

As to `N[C@@H]1C[C@H](N)CN(c2nc(Nc3ccc(NC(=O)c4cc(OC(F)(F)F)ccc4O)cc3)nc(N3C[C@H](N)C[C@H](N)C3)n2)C1` [N-[4-(2-hydroxy-5-trifluoromethoxy-benzoylamino)-phenyl]-4,6-Bis-((3R,5S)-3,5-diamino-piperidin-1-yl)-[1,3,5]triazine-2-amine], the MIC was below 16 µg/mL.

Consider `N[C@@H]1C[C@H](N)CN(c2nc(Nc3ccc(NC(=O)CO)cc3)nc(N3C[C@H](N)C[C@H](N)C3)n2)C1` [N-[4-(2-hydroxy-acetylamino)-phenyl]-4,6-Bis-((3R,5S)-3,5-diamino-piperidin-1-yl)-[1,3,5]triazine-2-amine], for which the MIC is above 64 µg/mL.

For `N[C@@H]1C[C@H](N)CN(c2nc(Nc3ccc(C(=O)CC(=O)Nc4ccccc4)cc3)nc(N3C[C@H](N)C[C@H](N)C3)n2)C1` [N-[4-(2-phenylcarbamoyl-acetyl)-phenyl]-4,6-Bis-((3R,5S)-3,5-diamino-piperidin-1-yl)-[1,3,5]triazine-2-amine], the MIC was below 16 µg/mL.

For the molecule `N[C@@H]1C[C@H](N)CN(c2nc(Nc3ccc(C(=O)Nc4ccc(Cl)c(Cl)c4)c(O)c3)nc(N3C[C@H](N)C[C@H](N)C3)n2)C1` [N-[4-(3,4-dichloro-phenylcarbamoyl)-3-hydroxy-phenyl]-4,6-Bis-((3R,5S)-3,5-diamino-piperidin-1-yl)-[1,3,5]triazine-2-amine], the MIC was below 16 µg/mL.

Consider `N[C@@H]1C[C@H](N)CN(c2nc(Nc3ccc(NC(=O)c4ccc(F)c(F)c4O)c(O)c3)nc(N3C[C@H](N)C[C@H](N)C3)n2)C1` [N-[4-(3,4-difluoro-2-hydroxy-benzoylamino)-3-hydroxy-phenyl]-4,6-Bis-((3R,5S)-3,5-diamino-piperidin-1-yl)-[1,3,5]triazine-2-amine], for which the MIC is below 64 µg/mL.

Consider `N[C@@H]1C[C@H](N)CN(c2nc(Nc3ccc(NC(=O)c4ccc(F)c(F)c4O)cc3)nc(N3C[C@H](N)C[C@H](N)C3)n2)C1` [N-[4-(3,4-difluoro-2-hydroxy-benzoylamino)-phenyl]-4,6-Bis-((3R,5S)-3,5-diamino-piperidin-1-yl)-[1,3,5]triazine-2-amine], for which the MIC was below 64 µg/mL.

In the case of `N[C@@H]1C[C@H](N)CN(c2nc(Nc3ccc(C(=O)Nc4ccc(F)c(F)c4)c(O)c3)nc(N3C[C@H](N)C[C@H](N)C3)n2)C1` [N-[4-(3,4-difluoro-phenylcarbamoyl)-3-hydroxy-phenyl]-4,6-Bis-((3R,5S)-3,5-diamino-piperidin-1-yl)-[1,3,5]triazine-2-amine], the MIC was below 16 µg/mL.
